# Results published in patent publication US9585957B2, “Adenosine receptor agonists and antagonists to modulate T cell responses” (THE JOHNS HOPKINS UNIVERSITY, priority 2007, dated 2017).
# Where two headings read alike, the source gives them in different places.
# Key:
# [1] = system: 6.5+ T cells in C3HA mice; assay: In vivo suppression: second transfer of lethal numbers of clonotypic 6.5+ T cells into surviving C3HA mice; conditions: mice that survived as a result of CGS treatment; no drug at second transfer (FIG. 5d)
# Procedure: It has been shown that mice that survive the initial transfer of donor T cells can survive subsequent transfer of higher numbers of clonotypic T cells. To determine if adenosine mediates the formation of T regulatory cells, in vivo, we gave the surviving mice from FIG. 4a a transfer of […] clonotypic T cells 4-6 weeks after the first transfer. No CGS is administered upon the second transfer.
# Tests were conducted to determine if the CGS-induced clonotypic regulatory cells could protect the mice upon subsequent rechallenge with a second injection of clonotypic cells. An in vivo suppression assay was performed by adoptively transferring uniformly lethal numbers of clonotypic 6.5^+ T cells (2.5×10^6) into mice that had survived the initial adoptive transfer (and developed regulatory T cells) (FIG. 5d).
# A.E7 T cell clones = assay: Cytokine production and CD25 expression of A.E7s stimulated with anti-CD3 and anti-CD28 in the presence of CGS; assay type: cell-based; conditions: for IC50: T-cell
# Procedure: Studies were conducted to determine the effects of A2a receptor stimulation on T cell function. A.E7 is a clonotypic CD4', Th1 T cell clone specific for pigeon cytochrome c (PCC) and is maintained as previously described (Powell, […]. & Schwartz, R. H. Inhibition of cell cycle progression by rapamycin induces T cell clonal anergy even in the presence of costimulation. J Immunol 162, 2775-84 (1999)). A.[…] were rendered anergic with anti-CD3 or by incubation with APC, PCC and 1 pM CGS-21680. For antibody induced anergy, 6-well plates were previously coated with anti-CD3 three hours prior to stimulation and washed with PBS. For mock stimulations, the well was not coated with anti-CD3. A.[…] were incubated in the coated well overnight at 37° C., then harvested and washed extensively and rested (24 hours for CAMP measurement, 4-6 days for proliferation and cytokine production). […] To assess proliferation to PCC, T cells were extensively washed and 5×10^6 cells were added to 50×10^4 irradiated BIO.A splenocytes and increasing doses of PCC in triplicate in a 96-well flat-bottomed plate. After 48 hours, cells were pulsed with [^3H] thymidine and harvested 16 hrs later. Tritium incorporation was determined by a Packard Matrix 96 direct beta counter (Packard bioscience). […] All conditions were done in triplicate and were cultured overnight. Supernatant was collected and assessed for cytokine levels (eBioscience for IL-2, IFN-y, TNF-a; R&D Systems for GM-CSF) as per manufacturers' instructions. For each sample, multiple dilutions of the supernatant were assayed and concentration was determined based upon the dilution that best fit the most linear aspect of the standard curve. For CD25 measurements, the cells used for cytokine production were stained with anti-CD25, harvested and measured by flow cytometry.
# [2] = system: 6.5 TCR transgenic T cells; assay: Anergy and LAG-3 induction in primary 6.5 TCR transgenic CD4+ T cells incubated with HA and CGS, then rechallenged; assay type: cell-based, mice
# Procedure: Splenocytes and lymphocytes from A2a receptor wt or null 6.5^+ mice (see below) were harvested and enriched for CD4^+ T cells via negative selection with the CD4^+ T cell isolation kit and LS MACs column (all from Miltenyi Biotech, Auburn, Calif.). […] The T cells were rechallenged for 3-4 hours with 100 ug/mL HA class II peptide, GolgiStop (BD PharMingen) and irradiated APCs.
# The cells were harvested, mRNA isolated with Trizol and cDNA was generated. RT-PCR was performed as previously described (Safford et al. Nat Immunol. 2005; 6:472-480).
# Splenocytes and lymphocytes from A2a receptor wt or null, 6.5^+ mice were harvested and enriched for CD4′ T cells via negative selection with the CD4^+ T cell isolation kit and LS MACs column (all from Miltenyi Biotech, Auburn, Calif.). […] Irradiated splenocytes from mice of the same A2a receptor genotype were used as APCs, at a 10:1 ratio with T cells. After 3 days, the T cells were harvested and isolated via a ficoll gradient, washed extensively and immediately rechallenged for intracellular staining Briefly, the 1×10^5 T cells were stimulated for 3-4 hours with 5×10^5 irradiated A2a receptor wt APCs, […] HA class II peptide and a 1:1000 dilution of GolgiStop (BD PharMingen), in a total volume of […]. After the stimulation, the cells were washed, stained with anti-6.5 and anti-CD4 antibodies, permeablized and fixed, then stained with anti-IFN-y antibody. Finally, the cells were washed and IFN-y production of […], 6.5^+ T cells was analyzed by flow cytometry.
# [3] = system: 6.5+ T cells in C3HA mice; assay: Survival of C3HA mice after adoptive transfer of 6.5+ T cells (mouse model of autoimmunity); assay type: in vivo
# Procedure: Clonotypic CD4^+ T cells were harvested from 6.5^+ transgenic mice. The unfractionated population was resuspended to contain 1.2×10^6 6.5^+ T cells in 200 uL of HBSS for i.v. injection through the tail vein of C3HA mice. […] The percentage of CD4^+, 6.5^+, Thy 1.1^−, Thy 1.2^− clonotypic T cells was determined by flow cytometric analysis. CD44 level was also analyzed to ensure that these clonotypic T cells were not activated in donor mice and were naive in phenotype. The cells were washed three times with HBSS and the unfractionated population was resuspended to contain the appropriate number of clonotypic T cells in 200 uL of HBSS for i.v. injection through the tail vein of C3HA.
# A survival curve was generated from two separate experiments for a total of 17 mice for each condition.
# LAG-3 = LAG-3 expression by RT-PCR in 6.5+ T cells sorted from CGS-treated C3HA mice; assay type: in vivo; conditions: T cells from CGS-treated versus vehicle-treated C3HA mice (FIG. 5a)
# Procedure: For in vivo studies, recipient C3HA mice were given 1.2×10^6 6.5^+ donor T cells as described above. On Day 3, donor T cells were sorted and cDNA generated as above. RT-PCR was performed as previously described (Safford et al. Nat Immunol. 2005; 6:472-480).
# Recipient mice are given 1.2×10^6 donor T cells as described above. On Day 4, cells from spleens and lymph nodes are harvested and pooled. They are enriched for CD4^+ T cells via negative selection using biotinylated anti-CD8 (Ly-2, 53-6.7), anti-B220 (RA3-6B2) and anti-Thy 1.2(30-H12) antibodies (all from BD Biosciences PharMingen), and MACS streptavidin microbeads and AutoMACS column (Miltenyi Biotech) to deplete CD8^+ T cells, B cells and recipient cells (Thy 1.2′). The remaining cells are then sorted on Thy 1. I and CD4 using FACSAria cell sorter to yield a CD4′, 6.5′ T cell population of greater than 95% purity. RT-PCR was performed as previously described’.
structure (smiles),measurement,setting,value
"CCNC(=O)[C@H]1O[C@@H](n2cnc3c(N)nc(NCCc4ccc(CCC(=O)O)cc4)nc32)[C@H](O)[C@@H]1O [CGS, 2-p-(2-carboxyethyl)phenethyl-amino-5-N-ethyl-carboxamidoadenosine]",survival of the second adoptive transfer,[1],100%
same,cytokine production,A.E7 T cell clones; A.E7 T cell clones activated with anti-CD3 and anti-CD28 in the presence of CGS,dose-dependent inhibition
same,IC50,"A.E7 T cell clones; read-out: ID50, inhibition of GM-CSF production",9.1 nM
same,IC50,"A.E7 T cell clones; read-out: ID50, inhibition of IFN-γ production",760 nM
same,IC50,"A.E7 T cell clones; read-out: ID50, inhibition of IL-2 production",4.7 nM
same,IC50,"A.E7 T cell clones; read-out: ID50, inhibition of TNF-α production",100 nM
same,production of the chemokine MIP-1α,"A.E7 T cell clones; anti-CD3 and anti-CD28, 20 nM CGS (FIG. 1d)",not inhibited
same,TCR-induced CD25 expression,"A.E7 T cell clones; anti-CD3 and anti-CD28, 1 μM CGS (FIG. 1b)",did not inhibit
same,IL-2 production,"A.E7 T cell clones; anti-CD3 and anti-CD28 in the presence of the A2a receptor agonist, 20 nM CGS (FIG. 1d)",markedly decreased
same,IFN-γ production upon rechallenge by intracellular staining,"[2]; A2a receptor Wt 6.5 T cells, HA with 1 μM CGS during primary stimulation (FIG. 3a)",hyporesponsive upon subsequent stimulation
same,CGS-induced anergy in A2a receptor null T cells,"[2]; A2a receptor null 6.5 T cells, HA with 1 μM CGS (FIG. 3a)",resistant to CGS-induced anergy
same,LAG-3 expression,"[2]; CD4+ 6.5+ primary T cells, irradiated APCs and HA, 1 μM CGS, 3 days, mRNA (FIG. 3b)",increase in LAG-3 expression
same,induction of LAG-3 with exogenous IL-2 added,[2]; CGS plus exogenous IL-2,abrogated
same,effect on mice receiving LAG-3 null T cells,"[3]; C3HA mice receiving LAG-3 null T cells, 4 day treatment with CGS (FIG. 5c)",no affect
same,"mice in which death was prevented, Wt T cells","[3]; C3HA mice receiving Wt T cells, 4 day treatment with CGS (FIG. 5c)",100%
same,long-term survival of mice,"[3]; C3HA mice, lethal dose of 6.5+ T cells, CGS 2.5 mg/kg i.p. twice daily for four days after transfer (FIG. 4a)",80%
same,protection of mice given A2a receptor KO T cells,"[3]; C3HA recipients given A2a receptor KO 6.5+ T cells, CGS treatment (FIG. 4d)",fails to protect
same,kinetics of LAG-3 expression in T cells,LAG-3,quicker and more robust
